Results as given in publication PMC10653547, “Synergistic effect of two antimicrobial peptides, BP203 and MAP-0403 J-2 with conventional antibiotics against colistin-resistant Escherichia coli and Klebsiella pneumoniae clinical isolates” (PLOS ONE, 2023).

Key:
[1] = test system: colistin-resistant E. coli clinical isolates; assay: Checkerboard assay for synergy testing; format: cell-based, Escherichia coli; conditions: checkerboard Ceftazidime+MAP-0403 J-2
Method: (§1) The synergistic activities of various two-antimicrobial combinations against colistin-resistant E. coli and K. pneumoniae isolates were evaluated using the checkerboard assay, which was performed in 96-well plates. […] Two-fold serial dilutions of peptides and antibiotics were independently prepared in CAMHB. Afterward, a mixture of different concentrations of the antibiotics and peptides was added to the wells of the microplates. Antibiotics and peptides were also dispended alone in the first row and the first column, respectively. Bacterial inoculum was added to the 96-well plate to achieve a final concentration of 5 × 10^5 CFU/mL. Then, plates were incubated at 37 °C for 20–24 h. MICs were recorded as the minimum concentration of antimicrobial agents without bacterial growth. The interaction between the antimicrobials was determined by calculating the fractional inhibitory concentration index (FICI) according to the formula: FICI = FIC(drug A) + FIC(drug B), where FIC = the MIC of the drug when in the combination/MIC of drug tested individually.

[2] = test system: colistin-resistant E. coli clinical isolates; assay: Disk diffusion antimicrobial susceptibility testing (CLSI); format: cell-based, Escherichia coli
Method: (§2) Ten non-duplicate clinical isolates of colistin-resistant E. coli (EC) and ten non-duplicate clinical isolates of colistin-resistant K. pneumoniae (KP) were obtained from the bacterial repository of the Division of Infectious Diseases and Tropical Medicine, Department of Medicine, Faculty of Medicine Siriraj Hospital, Mahidol University. The species identification was conducted through standard biochemical tests. Antimicrobial susceptibility testing was carried out using the disk diffusion method following CLSI guidelines. Additionally, the assessment of colistin resistance in all isolates was performed by broth microdilution following CLSI recommendations. […] The amino acid sequences of BP203 and MAP-0403 J-2 were retrieved from previous studies. These peptides are BP100 and MAP-0403 analogs, respectively. […] Antibiotic disks and defibrinated sheep blood were obtained from Oxoid (Basingstoke, UK). All culture media were purchased from Becton Dickinson (Frankin Lakes, NJ, USA). All chemicals were obtained from Sigma-Aldrich (St. Louis, MO, USA).

[3] = test system: colistin-resistant K. pneumoniae clinical isolates; assay: Checkerboard assay for synergy testing; format: cell-based, Klebsiella pneumoniae; conditions: checkerboard Ceftazidime+MAP-0403 J-2
Method: as §1

[4] = test system: colistin-resistant K. pneumoniae clinical isolates; assay: Disk diffusion antimicrobial susceptibility testing (CLSI); format: cell-based, Klebsiella pneumoniae; as to Interpreted results of disk diffusion: key: R: resistant; I: intermediate; SDD: susceptible-dose dependent; S: sensitive
Method: as §2

SMILES: CC(C)(O/N=C(\C(=O)N[C@@H]1C(=O)N2C(C(=O)[O-])=C(C[n+]3ccccc3)CS[C@H]12)c1csc(N)n1)C(=O)O [CAZ, ceftazidime]
- MIC alone ([1]; isolate EC-01): 8 µg/mL
- MIC combination ([1]; isolate EC-01): 0.5 µg/mL
- MIC alone ([1]; isolate EC-02): 16 µg/mL
- MIC combination ([1]; isolate EC-02): 4 µg/mL
- MIC alone ([1]; isolate EC-03): 16 µg/mL
- MIC combination ([1]; isolate EC-03): 1 µg/mL
- MIC alone ([1]; isolate EC-04): 4 µg/mL
- MIC combination ([1]; isolate EC-04): 1 µg/mL
- MIC alone ([1]; isolate EC-05): 1 µg/mL
- MIC combination ([1]; isolate EC-05): 0.0625 µg/mL
- MIC alone ([1]; isolate EC-06): 16 µg/mL
- MIC combination ([1]; isolate EC-06): 4 µg/mL
- MIC alone ([1]; isolate EC-07): 16 µg/mL
- MIC combination ([1]; isolate EC-07): 2 µg/mL
- MIC alone ([1]; isolate EC-08): 1 µg/mL
- MIC combination ([1]; isolate EC-08): 0.25 µg/mL
- MIC alone ([1]; isolate EC-09): 32 µg/mL
- MIC combination ([1]; isolate EC-09): 4 µg/mL
- MIC alone ([1]; isolate EC-10): 16 µg/mL
- MIC combination ([1]; isolate EC-10): 2 µg/mL
- Interpreted results of disk diffusion ([2]; EC-01): R
- Interpreted results of disk diffusion ([2]; EC-02): I
- Interpreted results of disk diffusion ([2]; EC-03): R
- Interpreted results of disk diffusion ([2]; EC-04): R
- Interpreted results of disk diffusion ([2]; EC-05): S
- Interpreted results of disk diffusion ([2]; EC-06): R
- Interpreted results of disk diffusion ([2]; EC-07): I
- Interpreted results of disk diffusion ([2]; EC-08): S
- Interpreted results of disk diffusion ([2]; EC-09): I
- Interpreted results of disk diffusion ([2]; EC-10): S
- %Resistance ([2]; ten E. coli isolates, disk diffusion): 40%
- MIC combination ([3]; isolate KP-01): 16 µg/mL
- MIC combination ([3]; isolate KP-02): 16 µg/mL
- MIC combination ([3]; isolate KP-03): 512 µg/mL
- MIC combination ([3]; isolate KP-04): 512 µg/mL
- MIC combination ([3]; isolate KP-05): 512 µg/mL
- MIC combination ([3]; isolate KP-06): 32 µg/mL
- MIC combination ([3]; isolate KP-07): 256 µg/mL
- MIC combination ([3]; isolate KP-08): 512 µg/mL
- MIC combination ([3]; isolate KP-09): 512 µg/mL
- MIC combination ([3]; isolate KP-10): 32 µg/mL
- Interpreted results of disk diffusion ([4]; KP-01): R
- Interpreted results of disk diffusion ([4]; KP-02): R
- Interpreted results of disk diffusion ([4]; KP-03): R
- Interpreted results of disk diffusion ([4]; KP-04): R
- Interpreted results of disk diffusion ([4]; KP-05): R
- Interpreted results of disk diffusion ([4]; KP-06): R
- Interpreted results of disk diffusion ([4]; KP-07): R
- Interpreted results of disk diffusion ([4]; KP-08): R
- Interpreted results of disk diffusion ([4]; KP-09): R
- Interpreted results of disk diffusion ([4]; KP-10): R
- %Resistance ([4]; ten K. pneumoniae isolates, disk diffusion): 100%
